Experiments:
Format in all cases: cell-based, Saccharomyces cerevisiae
barrier-free yeast = test: Cycloheximide sensitivity of barrier-free yeast; conditions: cycloheximide 50 ng/ml
[1] = tested on: MATa-type super barrier-free YKO strains; test: Cycloheximide sensitivity of MATa-type super barrier-free YKO strains; conditions: cycloheximide 25 ng/ml; all strains
Experimental: Instead of picking up the entire grown colonies with the 96-pin replicator, the grown colonies were picked up one by one (1 colony/strain) with a toothpick to transfer it onto new MATa selection agar medium, and culture at 30° C. for 7 days. Grown cells were picked up with a disposable 96-pin replicator, suspended in 100 μl of MATa selection liquid medium, and cultured at 25° C. for 2 to 7 days. Subsequently, the grown cells were transferred to a 384-well plate using a dispenser robot SHOTMASTER 3000.

[2] = tested on: barrier-free YKO (BF-YKO) knockout strains; test: Identification of target molecule using barrier-free YKO (sensitivity ranking by area score)
Experimental: Using the barrier-free YKO (BF-YKO) composed of 3,011 strains as prepared above, a target molecule of lovastatin was identified. The strains of BF-YKO were inoculated into twelve 384-well plates (1 strain/well) in an ordered manner. The static culture was performed for 3 to 7 days to equalize the number of cells across all strains. The cells were diluted 196-fold, thereby obtaining a cell dilution.
On the other hand, 384-well plates wherein 20 μl of YPAD medium containing 3.9 μM, 7.8 μM or 15.6 μM lovastatin was added to each well, and 384-well plates in which 20 μl of lovastatin-free YPAD medium was added to each well were prepared. 5 μl of the obtained cell dilution was added to each well. By this operation, the cells were diluted 1000-fold and the respective concentrations of the compound were adjusted to 3.125 μM, 6.25 μM and 12.5 μM.
(§1) These cells were cultured at 25° C., and light absorbance thereof at 650 nm was measured over time using a plate reader (SPECTRAMAX340PC384, Molecular Devices) from about 22 hours to 48 hours after the beginning of the culture. The area scores (ARS) were calculated based on the obtained data, thereby ranking the sensitivity.

[3] = tested on: super barrier-free YKO (SBF-YKO) knockout strains; test: Identification of target molecule using super barrier-free YKO (sensitivity ranking by area score); conditions: lovastatin 3.125 μM
Experimental: Identification of a target molecule of lovastatin was conducted using the super barrier-free YKO (SBF-YKO) composed of 4,044 strains prepared as above. The SBF-YKO strains were inoculated into twelve 384-well plates (1 strain/well) in an ordered manner, and subjected to 3 to 7 days of static culture to equalize the number of cells across all strains. The cells were diluted 196-fold, thereby obtaining a cell dilution.
On the other hand, 384-well plates in which 20 μl of YPAD medium containing 3.9 μM lovastatin was added to each well, and 384-well plates in which 20 μl of lovastatin-free YPAD medium was added to each well were prepared. 5 μl of the obtained cell dilution was added to each well. By this operation, the cells were diluted 1000-fold and the compound concentration was adjusted to 3.125 μM.
as §1
In the same manner as in Example 6, identification of a target molecule of rapamycin was conducted using super barrier-free YKO (SBF-YKO). Each of the SBF-YKO strains was subjected to 3 to 7 days of static culture to equalize the number of cells across all strains. […]

[4] = tested on: partner strain for super barrier-free YKO (SBF:KE513); test: Evaluation of sensitivity to lovastatin (area score, ARS), super barrier-free partner strain
Experimental: (§2) A lovastatin solution was added to a 96-well plate such that the concentration of lovastatin (Sigma-Aldrich, #M2147) was within the range of from 0.39 μM to 100 μM. A parent strain (WT:BY4742, Open Biosystems, #YSC1049) a partner strain for barrier-free YKO (BF:KE458), and a partner strain for super barrier-free YKO (SBF:KE513), which had been subjected to static culture at room temperature for 2 days, were added to the plate such that the final cell number was at a 2000-fold dilution, and then subjected to static culture at 30° C.
(§3) Thereafter, light absorbance thereof at 620 nm was measured over time using a plate reader (SUNRISE, manufactured by Tecan) for 48 hours. Calculation of the cell proliferation inhibiting activity was carried out using the area score method (ARS) described in Japanese Patent Application Laid-Open No. 2006-141298. In ARS, a larger value indicates a greater cell proliferation inhibiting activity.

[5] = tested on: partner strain for barrier-free YKO (BF:KE458); test: Evaluation of sensitivity to lovastatin (area score, ARS), barrier-free partner strain
Experimental: as §2, §3

[6] = tested on: parent strain (WT:BY4742); test: Evaluation of sensitivity to lovastatin (area score, ARS), parent strain; conditions: lovastatin concentration 100 μM, FIG. 4
Experimental: as §2, §3

[7] = tested on: commercially available YKO (Invitrogen, #95401.H2) knockout strains; test: Identification of target molecule using commercially available YKO collection (sensitivity ranking by area score)
Experimental: Identification of a target molecule of lovastatin was conducted in the same manner as in Example 7, except that commercially available YKO (Invitrogen, #95401.H2) composed of 4,847 strains was used instead of BF-YKO.
Identification of a target molecule of rapamycin was conducted in the same manner as in Example 9, except that commercially available YKO (Invitrogen, #95401.H2) composed of 4,847 strains was used instead of SBF-YKO and that the compound concentrations were changed to 10 nM, 12.5 nM and 15 nM.

[8] = tested on: parent strain (WT:BY4741); test: Evaluation of sensitivity to rapamycin (area score, ARS), parent strain; conditions: FIG. 5
Experimental: (§4) In the same manner as in Example 5, to confirm drug sensitivity of the barrier-free YKO (BF-YKO) and super barrier-free YKO (SBF-YKO), changes in sensitivity of the yeasts caused by the proliferation inhibiting effect of rapamycin were examined using a parent strain and a partner strain.
(§5) A rapamycin solution was added to a 96-well plate such that the concentration of rapamycin (Sigma-Aldrich, #R0395) was varied within the range of from 0.2 nM to 50 nM. A parent strain (WT:BY4741, Open Biosystems, #YSC1048), a barrier-free strain (BF:KE457), and a super barrier-free strain (SBF:KE477), which had been subjected to static culture at room temperature for 2 days, were added such that the final cell numbers was at a 1000-fold dilution, and then subjected to static culture at 30° C.
as §3

[9] = tested on: barrier-free strain (BF:KE457); test: Evaluation of sensitivity to rapamycin (area score, ARS), barrier-free strain; conditions: FIG. 5
Experimental: as §4, §5, §3

[10] = tested on: super barrier-free strain (SBF:KE477); test: Evaluation of sensitivity to rapamycin (area score, ARS), super barrier-free strain
Experimental: as §4, §5, §3

[11] = based on lovastatin concentrations at which an area score of about 10 was obtained

C[C@@H]1C[C@@H]([C@H](O)CC2CC(=O)NC(=O)C2)C(=O)[C@@H](C)C1 [cycloheximide]
growth in the presence of cycloheximide (barrier-free yeast): cannot grow
growth in the presence of cycloheximide [1]: could not grow

CC[C@H](C)C(=O)O[C@H]1C[C@@H](C)C=C2C=C[C@H](C)[C@H](CC[C@@H]3C[C@@H](O)CC(=O)O3)[C@H]21 [lovastatin]
sensitivity of HMG1 gene knockout strain ([2]; lovastatin 6.25 μM): high sensitivity
sensitivity of HMG1 gene knockout strain ([2]; lovastatin 12.5 μM): high sensitivity
sensitivity of BTS1-knockout strain [3]: most sensitive knockout strain
sensitivity of HMG1 gene knockout strain [3]: high sensitivity
concentration at which maximum inhibiting activity was exhibited ([4]; FIG. 4): 25 µM
sensitization relative to the WT strain [4, 11]: 16 times
concentration at which maximum inhibiting activity was exhibited ([5]; FIG. 4): 50 µM
sensitization relative to the WT strain [5, 11]: 8 times
cell proliferation inhibiting effect [6]: only a slight cell proliferation inhibiting effect
sensitivity of HMG1 gene knockout strain ([7]; lovastatin 3.125 μM): not found as a strain exhibiting sensitivity
sensitivity of BTS1-knockout strain ([7]; lovastatin 3.125 μM and 12.5 μM): not found as a strain exhibiting sensitivity
sensitivity of HMG1 gene knockout strain ([7]; lovastatin 12.5 μM): not found as a strain exhibiting sensitivity

CO[C@H]1C[C@@H]2CC[C@@H](C)[C@@](O)(O2)C(=O)C(=O)N2CCCC[C@H]2C(=O)O[C@H]([C@H](C)C[C@@H]2CC[C@@H](O)[C@H](OC)C2)CC(=O)[C@H](C)/C=C(\C)[C@@H](O)[C@@H](OC)C(=O)[C@H](C)C[C@H](C)/C=C/C=C/C=C/1C [rapamycin]
concentration at which maximum cell proliferation inhibiting effect was observed [8]: 50 nM
concentration at which maximum cell proliferation inhibiting effect was observed [9]: 50 nM
concentration at which maximum effect was exhibited ([10]; FIG. 5): 6.25 nM
sensitization relative to the WT strain ([10]; based on rapamycin concentrations at which an area score of about 10 was obtained): 8 times
